Measured values: patent publication US20110281289A1, “QUANTIFICATION OF ENZYME ACTIVITY BY MASS SPECTROMETRY USING IMMOBILIZED SUBSTRATES” (LUDWIG INSTITUTE FOR CANCER RESEARCH LTD., priority 2008, published 2011)

What was measured:
Format in all cases: cell-based
PI3K [1] = assay: Multiplex kinase assay on immobilized full length protein substrates (pool 1, pool 2) with lysates of P31-Fuj AML cells, LC-MS readout; design: relative kinase activity (normalized to mean of control and treated, log 2 converted), phosphopeptide SMAD-1 RVESPVLPPVLVPR SEQ ID NO: 5: dose or concentration left out as unconfirmed
Description: P31-Fuj AML cells were seeded at a density of 500000 cells/mL. […] Cells were washed twice in ice cold PBS containing 100 mM NaVO3 and 1 mM NaF and were subsequently harvested and lysed in the following lysis buffer: 40 mM Hepes pH 7.5, 120 mM NaCl, 1 mM EDTA, 10 mM pyrophosphate, 10 mM glycerophosphate, 50 mM NaF, 0.5 mM orthovanadate, 0.3% CHAPS, and complete protease inhibitors (Roche). […] After allowing the reactions to occur in the presence of ATP and Mg^2+, samples were trypsin digested and subject to LC-MS analysis. […] Data from a peptide kinase assay using the Aktide peptide (a peptide substrate with sequence RPRAATF—SEQ ID NO: 24—known to provide a readout of PI3K pathway activation) was compared with the data from a multiplex kinase assay using full length protein substrates.

PI3K [2] = assay: Peptide kinase assay using the Aktide peptide (protocols of WO 07/127,767) with P31-Fuji total cell lysates; conditions: P31-Fuji cells treated with LY294002 before lysis, vs control
Description: Data from a peptide kinase assay using the Aktide peptide (a peptide substrate with sequence RPRAATF—SEQ ID NO: 24—known to provide a readout of PI3K pathway activation) was compared with the data from a multiplex kinase assay using full length protein substrates. For this, P31-Fuji cells (an acute myeloid leukaemia cell line) were lysed and the kinase activity in total cell lysates measured using the protocols disclosed in WO 07/127,767 or using the protocols disclosed herein. Before lysis, cells were divided into two groups—(1) control and (2) treated with LY294002 (an inhibitor of PI3K which controls downstream protein kinases that phosphorylate the Aktide).

PI3K signalling activity = assay: Kinase reaction on immobilized BAD with lysates of serum-stimulated NIH-3T3 cells pre-treated or not with inhibitors, LC-MS readout; conditions: starved NIH-3T3 cells pre-treated with inhibitor, 10% fetal calf serum 5 minutes before lysis
Description: Starved NIH-3T3 cells, pre-treated or not with the inhibitors Wortmannin (WM) or PD98059 (PD), were stimulated with 10% fetal calf serum for 5 minutes prior to cell lysis. Cell lysates were mixed with immobilized BAD and ATP/Mg^2+ and reactions allowed to occur at 37° C. for the indicated times. Reactions were stopped and beads washed to remove lysate components and to buffer exchange to 50 mM ammonium bicarbonate. Immobilized phosphorylated BAD was digested with trypsin and resultant peptides analysed by LC-MS and LC-MS/MS.
Mass spectrometry was used to multiplex the measurement of protein kinase activities, using BAD as a substrate for in vitro reactions. BAD is a known substrate of the protein kinase AKT/PKB, which is downstream of PI3K and upstream mTORC1. Mouse His-Tag-BAD protein was immobilized to SEPHAROSE® beads. In subsequent experiments, human proteins were synthesised with N-terminal GST and His tags separated by a PreScission protease cleavage site. Purification was performed with glutathione S-sepharose chromatography. […] These immobilized proteins were used as substrates for kinase reactions using total cell lysates as an enzyme source.
Starved NIH-3T3 cells, pre-treated or not with the inhibitors WM or PD, were stimulated with 10% fetal calf serum for 5 minutes prior to cell lysis. Cell lysates were mixed with immobilized BAD and ATP/Mg^2+ and reactions allowed to occur at 37° C. for the times indicated in FIG. 3. Reactions were stopped, and the beads washed three times to remove lysate components and to buffer exchange to 50 mM ammonium bicarbonate. For each wash, beads were isolated from the reaction by magnetic separation using a magnet. Immobilised phosphorylated BAD was digested with trypsin and resultant peptides analysed by LC-MS and LC-MS/MS. […] These observed activities increased when serum was added to the medium prior to lysis and were sensitive to the addition of wortmannin (WM) but not the MEK inhibitor PD98059 (PD), thus arguing that these activities are a measure of WM target inhibition, probably PI3K signalling activity, a known target of WM, and are probably downstream PI3K.

[3] = Pool 1, P31-Fuj AML cells, 10 mM LY204002 for 1 hr
[4] = Pool 2, P31-Fuj AML cells, 10 mM LY204002 for 1 hr
[5] = full length protein substrate, P31-Fuji cells treated with LY294002 before lysis, vs control

With `O=c1cc(N2CCOCC2)oc2c(-c3ccccc3)cccc12` [Ly294002, LY294002] the “relative kinase activity (normalized, log 2), phosphopeptide Annexin MYGISLCQAILDETKGDYEK SEQ ID NO: 11” value (PI3K [1]; [3]) was 0.429, the “relative kinase activity (normalized, log 2), phosphopeptide Beta Catenin AAVSHWQQQSYLDSGIHSGATTTAPSLSGK SEQ ID NO: 12” value (PI3K [1]; [3]) was −1.337 and the “relative kinase activity (normalized, log 2), phosphopeptide Beta Catenin TSMGGTQQQFVEGVR SEQ ID NO: 13” value (PI3K [1]; [3]) was −0.5836. The “relative kinase activity (normalized, log 2), phosphopeptide SMAD-1 HSEYNPQHSLLAQFR SEQ ID NO: 6” value (PI3K [1]; [3]) was −2.2905, the “relative kinase activity (normalized, log 2), phosphopeptide myc CHVSTHQHNYAAPPSTR SEQ ID NO: 7” value (PI3K [1]; [3]) was 0.1282 and the “relative kinase activity (normalized, log 2), phosphopeptide myc FELLPTPPLSPSR SEQ ID NO: 8” value (PI3K [1]; [3]) was 0.1492. For the same compound, the “relative kinase activity (normalized, log 2), phosphopeptide myc FELLPTPPLSPSRR SEQ ID NO: 9” value (PI3K [1]; [3]) was −0.0685, the “relative kinase activity (normalized, log 2), phosphopeptide myc VKLDSVR SEQ ID NO: 10” value (PI3K [1]; [3]) was -0.3467 and the “relative kinase activity (normalized to mean of control and treated, log 2 converted), phosphopeptide SMAD-1 RVESPVLPPVLVPR SEQ ID NO: 5” value (PI3K [1]; Pool 1, P31-Fuj AML cells, LY204002 for 1 hr) was −0.6559. The “relative kinase activity (normalized, log 2), phosphopeptide 4ebp1 TPPRDLPTIPGVTSPSSDEPPMEASQSHLR SEQ ID NO: 19” value (PI3K [1]; [4]) was −4.332, the “relative kinase activity (normalized, log 2), phosphopeptide S6 DIPGLTDTTVPR SEQ ID NO: 14” value (PI3K [1]; [4]) was −0.573 and the “relative kinase activity (normalized, log 2), phosphopeptide S6 DIPGLTDTTVPRR SEQ ID NO: 15” value (PI3K [1]; [4]) was 0.007685. The “relative kinase activity (normalized, log 2), phosphopeptide foxo AVSMDNSNKYTK SEQ ID NO: 18” value (PI3K [1]; [4]) was −0.6542, the “relative kinase activity (normalized, log 2), phosphopeptide foxo HNLSLHSR SEQ ID NO: 17” value (PI3K [1]; [4]) was −0.1853 and the “relative kinase activity (normalized, log 2), phosphopeptide foxo WPGSPTSR SEQ ID NO: 16” value (PI3K [1]; [4]) was −0.6519. For the same compound, the “relative kinase activity (normalized, log 2), phosphopeptide p53 ALPNNTSSSPQPK SEQ ID NO: 21” value (PI3K [1]; [4]) was −5.826, the “relative kinase activity (normalized, log 2), phosphopeptide p53 CSDSDGLAPPQHLIR SEQ ID NO: 22” value (PI3K [1]; [4]) was −3.078 and the “relative kinase activity (normalized, log 2), phosphopeptide p53 RALPNNTSSSPQPK SEQ ID NO: 23” value (PI3K [1]; [4]) was −1.587. For the same compound, the “relative kinase activity (normalized, log 2), phosphopeptide p53 SVTCTYSPALNK SEQ ID NO: 20” value (PI3K [1]; [4]) was −2.051, the “reduction of kinase activity towards Ser94 on the substrate 4EBP1” value (PI3K [1]; [5]) was 95% and the “reduction of kinase activity towards Ser121 on the substrate p53” value (PI3K [1]; [5]) was 99%. For the same compound, the “reduction on the kinase activity towards the Aktide” value (PI3K [2]) was “about 85%”.

With `COc1cccc(-c2cc(=O)c3ccccc3o2)c1N` [PD98059] the “kinase activity towards BAD pS136 (SEQ ID NO: 4)” value (PI3K signalling activity) was “not sensitive”, the “kinase activity towards BAD pS170 (SEQ ID NO: 3)” value (PI3K signalling activity) was “not sensitive” and the “kinase activity towards BAD pS136 (SEQ ID NO: 4)” value (PI3K signalling activity; listed as PD) was “sensitive to the addition of WM but not PD”. For the same compound, the “kinase activity towards BAD pS170 (SEQ ID NO: 3)” value (PI3K signalling activity; listed as PD) was “sensitive to the addition of WM but not PD”.
